Read-outs that look alike come from different tables or passages of the source.
Tests used:
Lambsquarters [1] = conditions: 21 DAT, spray volume 200 l/ha
Protocol: (§1) The results shown in Table 3 were obtained by applying the mixture of dicamba technical acid (87%) and the formulation aid to two fields infected with various annual and perennial weeds (indicated in Table 3). The experiments were conducted between the period of September 1998 to August 2000.

Pig Weed [2] = conditions: 21 DAT, spray volume 200 l/ha
Protocol: as §1

[3] = system: various annual and perennial weeds; conditions: 21 DAT; spray volume of 200 l/ha; different rates; two fields
Protocol: as §1

Canada Thistle = experiment: Field control of broad-spectrum weeds with glyphosate technical acid + formulation aid (Example 2); assay type: in vivo; conditions: 21 DAT
Protocol: (§2) Prior to any preparation all spray-mixing and application equipment were cleaned thoroughly by observing cleaning directions provided on the agrochemical labeling and accompanying materials provided by the maker. Half of the required water was placed in a spray tank. A required amount of the formulation aid was added in the spray tank for the required rate of glyphosate application as indicated in Table 1. […] Mixing was continued and remainder of the water was added to the spray tank. Mixing was: continued for another 5-10 minutes. The ready to use herbicide and formulation aid mixture was applied by spraying at the required rate.
(§3) The formulation aid tested in this example contained about 21.5% by weight aromatic hydrocarbon distillate, about 3.1% by weight 2N-octanol, about 5.7% by weight oleyl-cetyl alcohol, about 3.1% by weight polyoxyethylene (8) nonylphenolethin, about 33.3% by weight polyoxyalkylated fatty alcohol, and about 33.3% by weight ethoxylated tallow amine blend.

Catnip = experiment: as above; assay type: in vivo; conditions: 21 DAT
Protocol: as §2, §3

Dandelions = experiment: as above; assay type: in vivo; conditions: 21 DAT
Protocol: as §2, §3

Lambsquarters [4] = experiment: as above; assay type: in vivo; conditions: 21 DAT
Protocol: as §2, §3

Pig Weed [5] = experiment: as above; assay type: in vivo; conditions: 21 DAT
Protocol: as §2, §3

Quackgrass = experiment: as above; assay type: in vivo; conditions: 21 DAT
Protocol: as §2, §3

Sow Thistle = experiment: as above; assay type: in vivo; conditions: 21 DAT
Protocol: as §2, §3

Annual grasses = experiment: as above; assay type: in vivo, foxtails, annual bluegrass, crabgrass, witchgrass; conditions: 21 DAT
Protocol: as §2, §3

[6] = system: various annual and perennial weeds; experiment: Field weed control overall, glyphosate technical acid (Example 2); assay type: in vivo; conditions: 21 DAT; different rates; 10 fields
Protocol: as §2, §3

[7] = Dicamba 0.140 Kg/ha + formulation aid 1.0 L/ha or + water
[8] = Dicamba 0.280 Kg/ha + formulation aid 1.0 L/ha or + water
[9] = glyphosate technical acid (95%) 0.24 Kg or l/ha + formulation aid 0.5 l/ha or + water
[10] = glyphosate technical acid (95%) 0.53 Kg or l/ha + formulation aid 0.5 l/ha or + water
[11] = glyphosate technical acid (95%) 0.94 Kg or l/ha + formulation aid 0.9 l/ha or + water

## COc1c(Cl)ccc(Cl)c1C(=O)O [Dicamba + water, 3,6-dichloro-2-methoxybenozic acid]
Lambsquarters [1]; [7]
  Control of Lambsquarters: 0%
Lambsquarters [1]; [8]
  Control of Lambsquarters: 0%
Pig Weed [2]; [7]
  Control of Pig Weed: 0%
Pig Weed [2]; [8]
  Control of Pig Weed: 0%
[3]
  weed control (in words): No weed control

## O=C(O)CNCP(=O)(O)O [Glyphosate + water, N-phosphonomethylglycine]
Canada Thistle; [9]
  Control of Canada Thistle: 0%
Canada Thistle; [10]
  Control of Canada Thistle: 0%
Canada Thistle; [11]
  Control of Canada Thistle: 0%
Catnip; [9]
  Control of Catnip: 0%
Catnip; [10]
  Control of Catnip: 0%
Catnip; [11]
  Control of Catnip: 0%
Dandelions; [9]
  Control of Dandelions: 0%
Dandelions; [10]
  Control of Dandelions: 0%
Dandelions; [11]
  Control of Dandelions: 0%
Lambsquarters [4]; [9]
  Control of Lambsquarters: 0%
Lambsquarters [4]; [10]
  Control of Lambsquarters: 0%
Lambsquarters [4]; [11]
  Control of Lambsquarters: 0%
Pig Weed [5]; [9]
  Control of Pig Weed: 0%
Pig Weed [5]; [10]
  Control of Pig Weed: 0%
Pig Weed [5]; [11]
  Control of Pig Weed: 0%
Quackgrass; [9]
  Control of Quackgrass: 0%
Quackgrass; [10]
  Control of Quackgrass: 0%
Quackgrass; [11]
  Control of Quackgrass: 0%
Sow Thistle; [9]
  Control of Sow Thistle: 0%
Sow Thistle; [10]
  Control of Sow Thistle: 0%
Sow Thistle; [11]
  Control of Sow Thistle: 0%
Annual grasses; [9]
  Control of Annual grasses: 0%
Annual grasses; [10]
  Control of Annual grasses: 0%
Annual grasses; [11]
  Control of Annual grasses: 0%
[6]
  weed control (in words): No weed control

Source: patent US6936572B2, “Agrochemical formulation aid composition and uses thereof” (Adjuvants Plus Inc., priority 2000, dated 2005)
